Measured values taken from patent US8318419B2, “Antiviral screening method to identify inhibitors of phosphatidylinositol 4,5-bisphosphate [PI(4,5)P2] binding to the HIV gag matrix (MA) protein” (priority 2007, dated 2012).
Where “and” joins values, the source holds several entries; their conditions need not be identical. Identical values can stand only once. Like-named read-outs stand apart in the source and are kept apart here.

Columns and labels:
HIV-1 myrMA [1] = molecular target: T1, HIV-1 myrMA (Human immunodeficiency virus type 1 group M subtype B, UniProt P12493); details: for binding to myrMA (changes in NMR spectra upon titration): 1H-15N HSQC titration; for triggering of myristate exposure: NMR; for Kd: read-out: dissociation constant (Kd), fit to 1:1 binding isotherms, 35° C., pH 5.5
Experimental: (§1) HIV-1 myrMA and myr(−)MA proteins were prepared as described (19, 37). Phosphoinositides PI(4,5)P2, di-C4-PI(4,5)P2, di-C8-PI(4,5)P2, di-C4-PI, di-C4-PI(3)P, di-C4-PI(4)P, di-C4-PI(5)P, di-C4-PI(3,5)P2, di-C8-PI(3,4,5)P2, and di-C4-PI (Echelon, Salt Lake City, Utah) and di-C4-phosphatidylcholine (Avanti Polar Lipids) were obtained commercially and used without further purification. Samples for all NMR experiments were prepared in 50 mM sodium phosphate at pH 5.5 and 5 mM DTT.
(§2) NMR data [Bruker DRX (Billerica, Mass.); 800 MHz ^1H and DMX 600 MHz ^1H spectrometers equipped with cryoprobes] were obtained from a combination of 2D, 3D, and 4D NOESY data, for combinations of natural abundance; ^15N-, ^15N-, and ^13C-labeled protein samples (35° C.). Protein signals were assigned as described (19, 37). Phosphoinositide signals were assigned from 2D heteronuclear multiple-quantum coherence (HMQC), heteronuclear multiple bond correlation (HMBC), NOESY, total correlation spectroscopy (TOCSY), and COSY data (the ^1H and ^13C NMR signals of the 1′- and 2′-acyl chains were resolved in the 2D spectra), and intra- and intermolecular ^1H-^1H NOEs were assigned from 2D (^1H-^1H), 3D (^13C-, ^15N-, and ^13C-edited/^12C-double-half-filtered), and 4D ([…] and ^13C/^13C-edited) NOESY data (39, 40). Binding isotherms from ^1H-^15N NMR HSQC titration experiments were calculated with ORIGIN 7.0 software (Microcal Software, Northampton, Mass.).

HIV-1 myrMA [2] = molecular target: T1, HIV-1 myrMA; type: binding; set-up: mediated by the matrix (MA) domain of Gag, a 132-residue polypeptide containing an N-terminal myristyl group; made in house; details: for Kd: fit to 1:1 binding isotherms, read-out: dissociation constant (Kd)
Experimental: as §1, §2

Row | Molecule | binding to myrMA (changes in NMR spectra upon titration) (HIV-1 myrMA [1]) | triggering of myristate exposure (HIV-1 myrMA [1]; myrMA) | other results
1 | PI(3,5)P2 | do not bind MA with significant affinity | do not bind MA with significant affinity or trigger myristate exposure | 
2 | CCCC(=O)OCC(COP(=O)(O)OC1C(O)C(O)C(OP(=O)(O)O)C(O)C1O)OC(=O)CCC (stereo not drawn) [di-C4-PI(4)P] | No detectable changes |  | 
3 | CCCCCCCC(=O)OC[C@H](COP(=O)(O)O[C@@H]1[C@H](O)[C@H](O)[C@@H](OP(=O)(O)O)[C@H](OP(=O)(O)O)[C@H]1O)OC(=O)CCCCCCC [di-C8-PI(4,5)P2, di-octyl-PI(4,5)P2] |  |  | affinity for myr(−)MA relative to di-C4-PI(4,5)P2 (HIV-1 myrMA [2]): 3 fold and > 3 fold; Kd (HIV-1 myrMA [2]): 83 ± 4 µM
4 | CCCC(=O)OCC(COP(=O)(O)OC1C(O)C(O)C(O)C(OP(=O)(O)O)C1O)OC(=O)CCC (stereo not drawn) [di-C4-PI(5)P] | No detectable changes |  | 
5 | CCCC(=O)OCC(COP(=O)(O)OC1C(O)C(OP(=O)(O)O)C(O)C(OP(=O)(O)O)C1O)OC(=O)CCC (stereo not drawn) [di-C4-PI(3,5)P2] | does not bind | does not bind myrMA or trigger myristate exposure | 
6 | PI(5)P | do not bind MA with significant affinity |  | 
7 | phosphatidylinositol (PI)4,5-bisphosphate [PI(4,5)P2] | binds directly | triggers myristate exposure | 
8 | CCCC(=O)OC[C@H](COP(=O)(O)OC1[C@H](O)[C@H](O)C(O)[C@H](O)[C@H]1O)OC(=O)CCC (stereo partly drawn) [di-C4-PI] | No detectable changes |  | 
9 | CCCC(=O)OC[C@H](COP(=O)(O)O[C@H]1[C@H](O)[C@@H](OP(=O)(O)O)[C@H](OP(=O)(O)O)[C@@H](OP(=O)(O)O)[C@H]1O)OC(=O)CCC [di-C4-PI(3,4,5)P3] |  | triggers myristate exposure | Kd (HIV-1 myrMA [1]; myrMA): 81 ± 18 µM
10 | CCCC(=O)OC[C@H](COP(=O)(O)O[C@@H]1[C@H](O)[C@H](O)[C@@H](OP(=O)(O)O)[C@H](OP(=O)(O)O)[C@H]1O)OC(=O)CCC [di-C4-PI(4,5)P2, di-butyryl-PI(4,5)P2] |  | causes extrusion of the myristyl group | Kd (HIV-1 myrMA [2]): 240 ± 60 µM; chemical-shift changes ΔδHN of group 1 residues (HIV-1 myrMA [1]; myrMA, upon addition of the lipid): 0.1-0.8 ppm; Kd (HIV-1 myrMA [1]; myrMA): 150 ± 30 µM
11 | CCCC(=O)OC[C@H](COP(=O)([O-])OCC[N+](C)(C)C)OC(=O)CCC [di-C4-phosphatidylcholine] | does not bind |  | 
12 | PI(4)P | do not bind MA with significant affinity | do not bind MA with significant affinity or trigger myristate exposure | 
13 | CCCC(=O)OC[C@H](COP(=O)(O)O[C@@H]1[C@H](O)[C@H](OP(=O)(O)O)[C@@H](O)[C@H](O)[C@H]1O)OC(=O)CCC [di-C4-PI(3)P] | No detectable changes |  | 
14 | PI(3)P | do not bind MA with significant affinity | do not bind MA with significant affinity or trigger myristate exposure | 
